Source: patent US20100021918A1, “METHOD FOR ASSAYING ACTION OF ANTITUMOR AGENT USING SPLICING DEFECTS AS INDEX” (Eisai R&D Management Co., Ltd., priority 2007, published 2010)

Test system: human colon carcinoma cell strain WiDr
Assay: Microarray analysis (2), reviewed conditions, intron expression, Table 3
Format: cell-based
Conditions: treated vs control; for Fold Change (change in expression level of intron probe set): WiDr cells
Procedure: WiDr cells were first suspended in RPMI1640 medium (containing 10% FBS, penicillin, and streptomycin) and seeded in a 10 cm dish (2×10^6 cells/dish). After an overnight culture in an incubator with 5% carbon dioxide gas at 37° C., the medium was changed with medium containing 14 nM of (8E,12E,14E)-7-((4-cycloheptylpiperazin-1-yl)carbonyl)oxy-3,6,16,21-tetrahydroxy-6,10,12,16,20-pentamethyl-18,19-epoxytricosa-8,12,14-trien-11-olide or containing vehicle alone. After cultured for additional six hours, TRI reagent (SIGMA) were added to the cells and the cells were harvested. RNA was purified in accordance with the protocol of TRI reagent, followed by further purification with RNeasy (QIAGEN). Absorbance at 260 nm was measured to quantify an amount of RNA. This experiment was repeated three times and RNA samples (n=3) were prepared.
Ribosomal RNA was removed from 1 μg of each total RNA of control cells (n=3) and cells with the treatment (n=3) by using RiboMinus Human/Mouse Transcriptome Isolation Kit (Invitrogen). Single stranded cDNA synthesis, double stranded cDNA synthesis, cRNA synthesis, second single stranded cDNA synthesis, cDNA fragmentation, and cDNA labeling in order were carried out for the total RNA from which ribosomal RNA was removed, by using GeneChip Whole Transcript Sense Target Labeling and Control Reagents (Affymetrix) to make a cDNA probe. The cDNA probe was used for hybridization with Human Exon 1.0 ST Array (Affymetrix). The array was washed and stained, and luminescence intensity was measured by a scanner.
Analysis conditions were reviewed in the data used in Example 3. Genes containing increased introns upon treatment with (8E,12E,14E)-7-((4-cycloheptylpiperazin-1-yl)carbonyl)oxy-3,6,16,21-tetrahydroxy-6,10,12,16,20-pentamethyl-18,19-epoxytricosa-8,12,14-trien-11-olide were identified.
In order to consider the analysis conditions, variations in the data from the samples with identical conditions were studied. […] It turned out that, by analyzing under conditions where the expression level was more than 100 and change in the expression level was more than five times, a probe set with increased expression can be extracted.
Probe sets showing that the normalized change in the level expression of the probe set in the group with the treatment was more than 5 times; the expression level of the probe set and the gene in the group with the treatment were more than 100; and probe set annotation was “extended, full, free”, were picked out. Welch's t-test was conducted with the probe sets extracted for the treated group and the control group to determine a p and q value. A gene containing the probe sets with the q value of less than 5% was determined as a candidate gene with increased expression level of the intron regions (Table 3).
In Table 3, for each gene evaluated, gene name (Gene Name), abbreviated name (Gene Symbol), accession number (Accession), alias name (Synonym), transcription cluster number in Human Exon 1.0 ST Array (Human Exon 1.0 ST Array Transcript Cluster ID), chromosome number (Chromosome), type of strand (Strand), start region (Start), stop region (Stop), and change in expression level (Fold Change) were respectively shown.

CCC(O)C(C)C1OC1CC(C)(O)/C=C/C=C(\C)C1OC(=O)CC(O)CCC(C)(O)C(OC(=O)N2CCN(C3CCCCCC3)CC2)/C=C/C1C (stereo not drawn) [E7107, (8E,12E,14E)-7-((4-cycloheptylpiperazin-1-yl)carbonyl)oxy-3,6,16,21-tetrahydroxy-6,10,12,16,20-pentamethyl-18,19-epoxytricosa-8,12,14-trien-11-olide]
Fold Change (gene AMD1, intron expression): 7.90
Fold Change (gene ANLN, intron expression): 7.90
Fold Change (gene ANTXR2, intron expression): 7.51
Fold Change (gene API5, intron expression): 7.77
Fold Change (gene ATAD2, intron expression): 7.69
Fold Change (gene ATN1, change in expression level): 14.70
Fold Change (gene AZIN1, intron expression): 7.51
Fold Change (gene BAT1 // ATP6V1G2, intron expression): 7.87
Fold Change (change in expression level of intron probe set) (gene BAZ1B, transcript cluster 3056044): 5.01
Fold Change (gene BCL7B, intron expression): 7.82
Fold Change (gene BIRC6, change in expression level): 15.96
Fold Change (gene BNIP2, change in expression level): 15.96
Fold Change (change in expression level of intron probe set) (gene BTF3L4, transcript cluster 2336271): 5.01
Fold Change (gene C1orf160, intron expression): 7.69
Fold Change (gene C4orf30, intron expression): 7.53
Fold Change (gene C10orf119, intron expression): 7.55
Fold Change (gene C11orf57, intron expression): 7.54
Fold Change (gene C12orf44, intron expression): 7.51
Fold Change (gene C15orf42, change in expression level): 26.27
Fold Change (change in expression level of intron probe set) (gene CDCA5, transcript cluster 3377423): 5.02
Fold Change (gene CENTD1, intron expression): 7.60
Fold Change (gene CERK, intron expression): 7.52
Fold Change (gene CGI-09, change in expression level): 16.01
Fold Change (gene CHCHD3, intron expression): 7.75
Fold Change (gene CLK3, intron expression): 7.91
Fold Change (gene CRSP6, intron expression): 7.49
Fold Change (gene CSNK2A1 // CSNK2A1P, intron expression): 7.87
Fold Change (gene DDX17, change in expression level): 15.42
Fold Change (gene DDX18 // WNT8B, intron expression): 7.70
Fold Change (gene DDX23, change in expression level): 15.78
Fold Change (gene DEDD, intron expression): 7.89
Fold Change (gene DPH1 // OVCA2, intron expression): 7.64
Fold Change (gene EEF1A1, intron expression): 7.70
Fold Change (gene EEF1B2, intron expression): 7.78
Fold Change (gene EGFR, intron expression): 7.77
Fold Change (change in expression level of intron probe set) (gene EIF3S1, transcript cluster 3591963): 5.02
Fold Change (gene EIF4G2, intron expression): 7.60
Fold Change (gene FBXL11, intron expression): 7.57
Fold Change (change in expression level of intron probe set) (gene FBXO28, transcript cluster 2382336): 5.02
Fold Change (gene FDFT1, intron expression): 7.90
Fold Change (gene FEN1, change in expression level): 14.75
Fold Change (gene FOXM1, intron expression): 7.52
Fold Change (gene GDI1, intron expression): 7.73
Fold Change (gene GTF2H1, intron expression): 7.62
Fold Change (gene GTF3C2, intron expression): 7.63
Fold Change (gene GTPBP4, intron expression): 7.79
Fold Change (gene HIRA, intron expression): 7.82
Fold Change (gene HSP90AA1 // HSP90AA2 // HSP90AA6P, intron expression): 7.53
Fold Change (change in expression level of intron probe set) (gene IDH3B, transcript cluster 3895075): 5.01
Fold Change (gene ILF3, intron expression): 7.68
Fold Change (gene IRS2, intron expression): 7.68
Fold Change (gene ITGB4BP, intron expression): 7.55
Fold Change (gene ITGB6, intron expression): 7.88
Fold Change (gene JOSD3 // SNORA25 // SNORA32 // SNORA18, intron expression): 7.81
Fold Change (gene KCTD10, intron expression): 7.48
Fold Change (gene KIAA0174, change in expression level): 14.78
Fold Change (gene KIAA1967, intron expression): 7.49
Fold Change (gene KITLG, intron expression): 7.58
Fold Change (gene KLHL18, change in expression level): 15.00
Fold Change (gene MAP2K3, intron expression): 7.70
Fold Change (gene MAP3K11, intron expression): 7.77
Fold Change (gene MKL1, intron expression): 7.93
Fold Change (change in expression level of intron probe set) (gene MLL5, transcript cluster 3017547): 5.02
Fold Change (gene MRPL17, intron expression): 7.62
Fold Change (gene MTF2, intron expression): 7.63
Fold Change (gene MYST2, intron expression): 7.60
Fold Change (gene NDUFA5, intron expression): 7.48
Fold Change (gene NONO, intron expression): 7.64
Fold Change (gene NOP5/NOP58, intron expression): 7.73
Fold Change (gene PAK1IP1 // C20orf7, change in expression level): 15.04
Fold Change (gene PELI1, change in expression level): 27.36
Fold Change (gene PEX5, intron expression): 7.53
Fold Change (gene PHF12, intron expression): 7.73
Fold Change (change in expression level of intron probe set) (gene PIK4CB // RFX5, transcript cluster 2434925): 5.03
Fold Change (change in expression level of intron probe set) (gene POLR3O, transcript cluster 2432647): 5.01
Fold Change (gene POMZP3, intron expression): 7.56
Fold Change (gene PPP6C, intron expression): 7.91
Fold Change (gene PPRC1, intron expression): 7.86
Fold Change (gene PRPF40A, intron expression): 7.89
Fold Change (gene RBM5, intron expression): 7.69
Fold Change (gene RPS6KB1, intron expression): 7.73
Fold Change (gene SAFB2, intron expression): 7.64
Fold Change (gene SAPS3, change in expression level): 15.25
Fold Change (gene SDCCAG3 // SNAPC4, intron expression): 7.49
Fold Change (change in expression level of intron probe set) (gene SHB // CKAP2 // MCART1, transcript cluster 3205659): 5.00
Fold Change (gene SIN3A, intron expression): 7.60
Fold Change (gene SMAD5, intron expression): 7.77
Fold Change (gene SNIP1, intron expression): 7.72
Fold Change (gene SNRP70, intron expression): 7.52
Fold Change (gene SPOP, intron expression): 7.71
Fold Change (gene SPRED2, change in expression level): 15.03
Fold Change (change in expression level of intron probe set) (gene SPTLC2, transcript cluster 3573152): 5.02
Fold Change (gene STARD7, intron expression): 7.65
Fold Change (gene STIP1, intron expression): 7.71
Fold Change (gene SUPV3L1, change in expression level): 14.99
Fold Change (gene TBC1D10B, intron expression): 7.74
Fold Change (gene TCP1, intron expression): 7.92
Fold Change (gene THRAP1, intron expression): 7.84
Fold Change (gene TMEM2, intron expression): 7.52
Fold Change (gene TOP1, intron expression): 7.93
Fold Change (gene TXNDC9 // LYG2, intron expression): 7.69
Fold Change (gene UBE2J1, intron expression): 7.66
Fold Change (gene USP36, intron expression): 7.92
Fold Change (gene VAPA, intron expression): 7.56
Fold Change (gene WAC, intron expression): 7.92
Fold Change (gene WDR3, intron expression): 7.63
Fold Change (gene YIPF3 // C6orf154, intron expression): 7.61
Fold Change (gene YME1L1, intron expression): 7.84
Fold Change (gene YTHDF1, intron expression): 7.83
Fold Change (gene ZNF148, intron expression): 7.69
Fold Change (gene ZNF473, intron expression): 7.87
